Reference: patent US20220338471A1, “HONEY BEE-SAFE ACARICIDAL COMPOUNDS” (Kansas State University Research Foundation, priority 2019, published 2022)
Where “and” joins values, the source holds several entries; their conditions need not be identical. Identical values can stand only once. Like-named read-outs stand apart in the source and are kept apart here. Square brackets hold non-standard residues; d marks the D form. Ends that are not written are not given here. Peptide text beside a SMILES is read from it. Oic = O=C(O)[C@@H]1C[C@@H]2CCCC[C@@H]2N1; Phe(4-Cl) = N[C@@H](Cc1ccc(Cl)cc1)C(=O)O; Phe(4-F) = N[C@@H](Cc1ccc(F)cc1)C(=O)O; Hyp = O=C(O)[C@@H]1C[C@@H](O)CN1; β3hF = N[C@H](CC(=O)O)Cc1ccccc1; β3hL = CC(C)C[C@H](N)CC(=O)O; β3hP = O=C(O)C[C@@H]1CCCN1; Aib = CC(C)(N)C(=O)O

How the values were obtained:
[1] = target: T1, varroa mite proctolin receptor (VdProctR) (Varroa destructor, UniProt A0A7T1TE40); assay: Receptor activity assay: luminescence in cells transiently transfected with varroa mite proctolin receptor; assay type: cell-based; conditions: for EC50: varroa mite proctolin receptor; for Activity at high concentrations compared with proctolin: at 1 μM and 10 μM; for Factor by which potency exceeds that of the corresponding analog with only a single replacement at Y2: 2338 vs 2333, 2337 vs 2329
T1 sequence (A0A7T1TE40 1-530): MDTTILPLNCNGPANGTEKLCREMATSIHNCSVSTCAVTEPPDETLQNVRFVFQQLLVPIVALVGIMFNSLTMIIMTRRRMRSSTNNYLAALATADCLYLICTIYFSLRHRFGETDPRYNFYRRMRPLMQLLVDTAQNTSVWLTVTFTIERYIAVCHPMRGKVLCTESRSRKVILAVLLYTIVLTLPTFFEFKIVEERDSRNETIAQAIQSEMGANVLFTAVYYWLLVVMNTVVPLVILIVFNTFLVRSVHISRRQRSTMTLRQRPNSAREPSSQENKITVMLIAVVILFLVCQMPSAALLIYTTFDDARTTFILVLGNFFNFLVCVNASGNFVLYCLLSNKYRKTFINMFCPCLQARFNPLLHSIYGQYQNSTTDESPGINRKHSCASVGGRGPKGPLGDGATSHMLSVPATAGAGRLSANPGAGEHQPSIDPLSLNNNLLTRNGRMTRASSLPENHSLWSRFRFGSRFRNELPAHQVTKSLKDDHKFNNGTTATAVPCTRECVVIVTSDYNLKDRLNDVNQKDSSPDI
Procedure: (§1) Approximately thirty hours after transfection, the cells were collected and preincubated with coelenterazine h for the functional assay. The ligands in serial dilutions were loaded into 96-well opaque plates. Cells treated with coelenterazine h were injected into each well on an Orion microplate luminometer (Berthold) luminescent plate reader. The luminescence was measured for 20 seconds immediately after the cell injections. Data analyses were performed to determine the accumulated luminescence value for 20 seconds after extraction of blank-well luminescence. A dose-response curve was generated and the EC50 (50% effective concentration) was calculated in Origin 7 (OriginLab).

Varroa mites = assay: Injection of compound into the body cavity of varroa mites (excretion); assay type: in vivo, Varroa destructor; conditions: ~5 nL of 200 μM
Source text: Micro-glass electrodes were used for the injections using the pressure injection system (Dagan PMI-200). All injected animals were within 5 hr after the collections as described above.

[2] = tested on: honey bee FMRFamide receptor; assay: Activity on the honey bee FMRFamide receptor expressed in the same system; assay type: cell-based; conditions: in words
Procedure: as §1
Honey bee FMRFamide receptor was cloned and expressed in the same system as described for the procotolin receptor. […] Potential effects of the peptidomimetics 2439, 2334, 2336, Ac-2442, and H2O control were tested by injections of the compounds into the thorax of worker honey bees.

[3] = tested on: empty vector transfected cells; assay: Receptor activity assay, negative control: cells transfected with empty vector; assay type: cell-based; conditions: 10 μM proctolin
Procedure: as §1, with “Receptor activity assay: […] Approximately” for “Approximately”, “[…] The receptor” for “A dose-response curve”, “also tested with a variety of peptide analogues” for “generated”, “peptidomimetics.” for “the EC50 (50% effective concentration) was calculated in Origin 7 (OriginLab).”

Bombyx mori larval gut = conditions: cited from earlier work
honey bee queen = conditions: injection, 1 μL containing 1 μg; cited from earlier work
[4] = EC50 (nM), second set of peptidomimetics
[5] = second set, EC50 relative to proctolin (14.19 nM)
[6] = first set of experiments, EC50 relative to proctolin (0.22 nM)
[7] = first set of experiments, read-out: EC50
[8] = EC50 (nM), first set of experiments

Molecule	Fold change [1, 6]	EC50 [1, 7]	EC50 [1, 8]	further results
CC(=O)N[C@@H](CCCNC(=N)N)C(=O)N[C@@H](Cc1ccc(F)cc1)C(=O)N[C@@H](CC(C)C)C(=O)N1C[C@H](O)C[C@H]1C(=O)N[C@H](C(=O)O)[C@@H](C)O [Ac-2441, Ac-R[Phe(4-F)]L[HyP]T] (Ac-R[Phe(4-F)]L[Hyp]T-OH)				EC50 [1, 4]: 471 nM; Fold change [1, 5]: 33.20
CC(=O)N[C@@H](CCCNC(=N)N)C(=O)N[C@@H](Cc1ccc(Cl)cc1)C(=O)N[C@@H](CC(C)C)C(=O)N1C[C@H](O)C[C@H]1C(=O)N[C@H](C(=O)O)[C@@H](C)O [Ac-2443, Ac-R[Phe(4-Cl)]L[HyP]T] (Ac-R[Phe(4-Cl)]L[Hyp]T-OH)				EC50 [1, 4]: 108 nM; Fold change [1, 5]: 7.64
CC(C)C[C@H](NC(=O)[C@H](Cc1ccc(O)cc1)NC(=O)[C@@H](N)CCCNC(=N)N)C(=O)N1CCC[C@H]1C(=O)N[C@@H](C(=O)O)[C@H](C)O [Analog 2326, RYLP[dT]] (H-RYLP[dT]-OH; N-terminus assumed)	13600.00	2990 nM		Agonist activity / potency on the Varroa mite proctolin receptor, in words ([1]; in words): inactive agonist
CC(C)C[C@H](NC(=O)[C@H](Cc1ccc(O)cc1)NC(=O)[C@@H](N)CCCNC(=N)N)C(=O)N1CCC[C@@H]1C(=O)N[C@H](C(=O)O)[C@@H](C)O [Analog 2327, RYL[dP]T] (H-RYL[dP]T-OH)	2496.82	549 nM		
CC(C)C[C@@H](NC(=O)[C@H](Cc1ccc(O)cc1)NC(=O)[C@@H](N)CCCNC(=N)N)C(=O)N1CCC[C@H]1C(=O)N[C@H](C(=O)O)[C@@H](C)O [Analog 2328, RY[dL]PT] (H-RY[dL]PT-OH)	413.36	90.9 nM		
CC(C)C[C@H](NC(=O)[C@@H](Cc1ccc(O)cc1)NC(=O)[C@@H](N)CCCNC(=N)N)C(=O)N1CCC[C@H]1C(=O)N[C@H](C(=O)O)[C@@H](C)O [Analog 2329, R[dY]LPT] (H-R[dY]LPT-OH)	672.27	148 nM		
CC(C)C[C@H](NC(=O)[C@H](Cc1ccc(O)cc1)NC(=O)[C@H](N)CCCNC(=N)N)C(=O)N1CCC[C@H]1C(=O)N[C@H](C(=O)O)[C@@H](C)O [Analog 2330, [dR]YLPT] (H-[dR]YLPT-OH; N-terminus assumed)	25.55	5.6 nM and 5.62 nM		Activity at high concentrations compared with proctolin [1]: higher than that of proctolin
CC(C)C[C@H](NC(=O)[C@H](Cc1ccc(O)cc1)NC(=O)[C@@H](N)CCCNC(=N)N)C(=O)N1CCC[C@H]1CC(=O)N[C@H](C(=O)O)[C@@H](C)O [Analog 2331, RYL[β3P]T] (H-RYL[β3hP]T-OH; N-terminus assumed)	20.00	4.4 nM		Activity at high concentrations compared with proctolin [1]: higher than that of proctolin
CC(C)C[C@@H](CC(=O)N1CCC[C@H]1C(=O)N[C@H](C(=O)O)[C@@H](C)O)NC(=O)[C@H](Cc1ccc(O)cc1)NC(=O)[C@@H](N)CCCNC(=N)N [Analog 2332, RY[β3L]PT] (H-RY[β3hL]PT-OH)	927.27	204 nM		
CC(C)C[C@H](NC(=O)C[C@H](Cc1ccccc1)NC(=O)[C@@H](N)CCCNC(=N)N)C(=O)N1CCC[C@H]1C(=O)N[C@H](C(=O)O)[C@@H](C)O [Analog 2333, R[β3F]LPT] (H-R[β3hF]LPT-OH)	991.82	218 nM		
CC(C)C[C@H](NC(=O)[C@H](Cc1ccc(O)cc1)NC(=O)[C@@H](N)CCCNC(=N)N)C(=O)N1C[C@H](O)C[C@H]1C(=O)N[C@H](C(=O)O)[C@@H](C)O [Analog 2334, RYL[HyP]T] (H-RYL[Hyp]T-OH; N-terminus assumed)	2.5 and 2.45	0.54 nM		Activity at high concentrations compared with proctolin [1]: higher than that of proctolin; Agonist activity / potency on the Varroa mite proctolin receptor, in words ([1]; in words): strong agonists; Individuals with immediate excretion of a drop of fecal material through the anus (Varroa mites): 3/4
CC(C)C[C@H](NC(=O)[C@H](Cc1ccc(O)cc1)NC(=O)[C@@H](N)CCCNC(=N)N)C(=O)NC(C)(C)C(=O)N[C@H](C(=O)O)[C@@H](C)O [Analog 2335, RYL[Aib]T] (H-RYL[Aib]T-OH)	10.09	2.2 nM and 2.22 nM		
CC(C)C[C@H](NC(=O)[C@@H](Cc1ccc(O)cc1)NC(=O)[C@@H](N)CCCNC(=N)N)C(=O)N1C[C@H](O)C[C@H]1C(=O)N[C@H](C(=O)O)[C@@H](C)O [Analog 2337, R[dY]L[HyP]T] (H-R[dY]L[Hyp]T-OH; N-terminus assumed)	163.00		36 nM and 35.9 nM	Factor by which potency exceeds that of the corresponding analog with only a single replacement at Y2 [1]: 4; Efficacy (maximal response) ([1]; in words): full efficacy
CC(C)C[C@H](NC(=O)C[C@H](Cc1ccccc1)NC(=O)[C@@H](N)CCCNC(=N)N)C(=O)N1C[C@H](O)C[C@H]1C(=O)N[C@H](C(=O)O)[C@@H](C)O [Analog 2338, R[β3F]L[HyP]T] (H-R[β3hF]L[Hyp]T-OH)	119.59		26 nM and 26.3 nM	Factor by which potency exceeds that of the corresponding analog with only a single replacement at Y2 [1]: 8; Efficacy (maximal response) ([1]; in words): full efficacy
CC(C)C[C@H](NC(=O)[C@@H](Cc1ccc(O)cc1)NC(=O)[C@@H](N)CCCNC(=N)N)C(=O)N1[C@H](C(=O)N[C@H](C(=O)O)[C@@H](C)O)C[C@@H]2CCCC[C@@H]21 [Analog 2340, R[dY]L[Oic]T] (H-R[dY]L[Oic]T-OH; N-terminus assumed)	1262.27		278 nM	Potency compared with 2337 and 2338 ([1]; in words): less potent than 2337 and 2338 by approximately an order of magnitude
CC(C)C[C@H](NC(=O)[C@H](Cc1ccc(F)cc1)NC(=O)[C@@H](N)CCCNC(=N)N)C(=O)N1CCC[C@H]1C(=O)N[C@H](C(=O)O)[C@@H](C)O [Analog 2438, R[Phe(4-F)]LPT] (H-R[Phe(4-F)]LPT-OH)				EC50 [1, 4]: 7.55 nM; Fold change [1, 5]: 0.53
CC(C)C[C@H](NC(=O)[C@H](Cc1ccc(Cl)cc1)NC(=O)[C@@H](N)CCCNC(=N)N)C(=O)N1CCC[C@H]1C(=O)N[C@H](C(=O)O)[C@@H](C)O [Analog 2440, R[Phe(4-Cl)]LPT] (H-R[Phe(4-Cl)]LPT-OH)				EC50 [1, 4]: 7.03 nM; Fold change [1, 5]: 0.50
CC(C)C[C@H](NC(=O)[C@H](Cc1ccc(F)cc1)NC(=O)[C@@H](N)CCCNC(=N)N)C(=O)N1C[C@H](O)C[C@H]1C(=O)N[C@H](C(=O)O)[C@@H](C)O [Analog 2441, R[Phe(4-F)]L[HyP]T] (H-R[Phe(4-F)]L[Hyp]T-OH; N-terminus and C-terminus assumed)				EC50 [1, 4]: 9.93 nM; Activity compared with proctolin, in words ([1]; second set, Y2 phenylalanine variants): higher activity than proctolin; Fold change [1, 5]: 0.70
GRYLPT [Analog G1, GRYLPT]	140.36		30.9 nM	
RGYLPT [Analog G2, RGYLPT]	72095.45		15900 nM	
RYGLPT [Analog G3, RYGLPT]	142868.18		31400 nM	
RYLGPT [Analog G4, RYLGPT]	4954.55		1090 nM	
RYLPGT [Analog G5, RYLPGT]	5259.09		1160 nM	
RYLPT [Proctolin, RYLPT]	1.00		0.22 nM	EC50 [1, 4]: 14.2 nM; Fold change [1, 5]: 1.00; Activity on the honey bee FMRFamide receptor [2]: no activities; Activity on empty vector transfected cells [3]: did not show any activity; Concentration required for hindgut contraction (Bombyx mori larval gut; Bombyx mori larval hindgut): 180 µM; Concentration required in the midgut to slightly reduce leucine uptake (Bombyx mori larval gut; Bombyx mori larval midgut): 10 µM; Egg-laying activity of the queen (honey bee queen): increased the egg-laying activity of the queen
RYLPTG [Analog G6, RYLPTG]	2175.00		478 nM	Activity at high concentrations compared with proctolin [1]: higher than that of proctolin
